“And” between values parts separate entries of the source, which are not always exact repeats. Equal entries are not always repeated. “Also recorded” adds a separate entry of the source.
How the values were obtained:
Format in all cases: in vivo
NOD mice [1] = assay: Glucose post oral insulin in fasting 7 week NOD mice (Example 2); settings: for blood glucose over the next 24 hours: animals in fasting state; for blood glucose after feeding: fasting 7 week old mice
Description: In order to determine whether any endocrinologic (i.e. direct lowering of blood sugar) effects occurred following the feeding of insulin, 7 week old NOD mice (5 mice per group) were fed 1 mg of porcine insulin or 1 mg of myelin basic protein (obtained from Pel Freez, Rogers, Ark.) as a control protein. Blood glucose was then measured over the next 24 hour period. As a positive control, a separate group of animals were injected subcutaneously with 20 micrograms of Porcine insulin. All animals were kept in the fasting state.

NOD mice [2] = assay: Effect of aerosol administration of insulin on diabetes in NOD mice (Example 4); settings: 0 to 1 mg insulin in aerosol form by nebulizer
Description: Insulin (0 to 1 mg as in Examples 1 and 2) will be administered to NOD mice as described above in Examples 1 and 2 except in aerosol form by nebulizer.

[3] = system: NOD (non-obese diabetic) mice; assay: Effect of feeding porcine insulin on spontaneous diabetes in NOD mice (Example 1)
Description: NOD (non-obese diabetic mice) were obtained from Taconic Laboratories (Germantown, Mass.) at 4 weeks of age. There were a total of 30 animals in each of the groups mentioned below at the beginning of the experiment. At 41/2 weeks of age, animals were orally administered Porcine insulin (Novo Laboratories, Danbury, Conn.). Each animal received two treatments orally twice a week until 9 weeks of age. The mice were fed either saline (control) or 10 micrograms, 100 micrograms, or 1 milligram of Porcine insulin. The animals were fed (gavaged) with an 18 gauge ball-point needle (Popper and Sons, Inc., New Hyde Park, N.Y.). Beginning at 10 weeks the animals were then fed once a week for a total of 33 weeks. Beginning at 12 weeks the urine was tested weekly for the presence of glucose using Glucosuria test tape (Eli Lilly, Indianapolis, Ind.). If an animal tested 3+ or higher on the glucose urine test, a serum sample was taken and blood glucose measured using a glucose analyzer (Beckman). If the blood glucose was 220 or higher, the animals were classified as diabetic and then sacrificed.

NOD mice [4] = assay: Treatment of initial stages of diabetes in NOD mice (Example 5); settings: 0 to 1 mg insulin, oral and aerosol, hyperglycemic mice from weeks 12-20 of age
Description: Insulin (0 to 1 mg as in Examples 1 and 2) will be administered to NOD mice which are suffering from hyperglycemia in an oral and aerosol form. The treatments will begin by weeks 12-20 of age, by which the serum glucose levels are at hyperglycemic concentrations in a certain percentage of animals prior to onset of diabetes.

NOD mice [5] = assay: Preliminary experiments: insulitis in NOD mice fed insulin; settings: fed 1 mg of insulin; data not shown
Description: Therefore, oral administration of insulin to NOD mice appeared to be affecting the infiltration of immune system cells into the pancreas and thus halting disease progression by preserving beta cell function.

Substance | blood glucose over the next 24 hours (NOD mice [1]; 1 mg fed orally) | blood glucose after feeding (NOD mice [1]; 1 mg fed orally) | prevention of symptoms (hyperglycemia) of Type 1 diabetes (NOD mice [2]) | development of diabetes ([3]; 1 mg porcine insulin fed orally (gavage), diabetic = blood glucose 220 or higher) | development of diabetes ([3]; 10 micrograms porcine insulin fed orally) | incidence of diabetes, all oral doses tested ([3]; 10 micrograms, 100 micrograms, 1 mg oral, dose-dependent) | development of diabetes ([3]; 100 micrograms porcine insulin fed orally) | blood sugar of individual animals which developed diabetes ([3]; fed 10 micrograms of insulin) | blood sugar of individual animals that became diabetic ([3]; fed 100 micrograms of insulin) | treated animals that failed to develop diabetes ([3]; highest dose of oral insulin (1 mg)) [%] | beta cell function (NOD mice [4]) | serum glucose concentrations (NOD mice [4]) | endocrinologic (metabolic) effects of feeding (NOD mice [1]; 1 mg fed orally) | decrease in the glucose level (NOD mice [1]; 20 micrograms porcine insulin injected subcutaneously (positive control), fasting) | period over which the drop in glucose persisted (NOD mice [1]; 20 micrograms porcine insulin subcutaneously, fasting) [h] | inflammatory immune system cells surrounding the pancreas (insulitis) vs PBS-fed mice (NOD mice [5])
myelin basic protein | gradual decrease in blood glucose | no drop in the blood glucose | – | – | – | – | – | – | – | – | – | – | – | – | – | –
insulin | gradual decrease in blood glucose | no drop in the blood glucose | effective in preventing the manifestation of symptoms | none of the mice went on to develop diabetes; also recorded: no diabetes developed in any of the animals; also recorded: None of the animals developed diabetes | diabetes developed | lower incidence of diabetes at all doses; also recorded: reduced the numbers of these mice which subsequently went on to develop diabetes | diabetes developed | 330 mg/dL and 420 mg/dL and 315 mg/dL and 459 mg/dL and 520 mg/dL and 487 mg/dL | 500 mg/dL and 290 mg/dL and 600 mg/dL and 450 mg/dL | 100 | preservation of beta cell function | reduction in serum glucose concentrations to near normal levels | no endocrinologic (metabolic) effects | approximately 80 mg % | 4 | fewer inflammatory immune system cells surrounding the pancreas

From patent US5643868A, “Method of treating or preventing type 1 diabetes by oral administration of insulin” (Autoimmune, Inc., priority 1995, dated 1997)
